# From US7105510B2, “Non-nucleoside reverse transcriptase inhibitors” (Boehringer Ingelheim (Canada) Ltd., priority 2002, dated 2006)
# Experiments:
# [1] = molecular target: T1, HIV-1 RT WT (Human immunodeficiency virus type 1 group M subtype B, UniProt P03366); test: Reverse Transcriptase (RT) assay, wild type; format: biochemical
# T1 construct: mutations that occur in the reverse transcriptase segment of the pol gene
# Description: (§1) Based upon testing of these compounds, as described below, it is known that they inhibit the RNA-dependent DNA polymerase activity of HIV-1 RT. Utilizing the Reverse Transcriptase (RT) Assay described below, compounds can be tested for their ability to inhibit the RNA-dependent DNA polymerase activity of HIV-1 RT. Certain specific compounds described in the Examples which appear below, were so tested. The results of this testing appear in Table 2 as IC50 (nM) and EC50 (nM).
# (§2) Reverse Transcriptase (RT) and Cell-Based Assays
# (§3) The assays are as described in WO 01/96338A1, the contents of which are hereby incorporated herein.
# [2] = test system: HIV-1 WT; test: Cell-based assay, wild type; conditions: Human immunodeficiency virus 1
# Description: as §2, §3
# [3] = molecular target: T2, HIV-1 RT K103N/Y181C (Human immunodeficiency virus type 1 group M subtype B, UniProt P03366, K702N/Y780C); test: Reverse Transcriptase (RT) assay, double mutant K103N/Y181C; format: biochemical
# T2 construct: mutations that occur in the reverse transcriptase segment of the pol gene
# Description: as §1, §2, §3
# [4] = test system: HIV-1 K103N/Y181C (103/181); test: Cell-based assay, 103/181 double mutant; conditions: Human immunodeficiency virus 1, read-out: EC50 103/181
# Description: as §2, §3
Compound,IC50 [1] [nM],EC50 [2] [nM],IC50 [3] [nM],EC50 [4] [nM]
"CCN1c2ncc(CCOc3cccc4c3CNC4=O)cc2C(=O)N(C)c2cccnc21 [Entry 101, 5,11-Dihydro-8-{2-{(2,3-dihydro-1-oxo-1H-isoindol-4-yl)oxy}ethyl}-11-ethyl-5-methyl-6H-dipyrido[3,2-b:2′,3′-e][1,4]diazepin-6-one]",< 50,< 10,> 100,< 10
CCN1c2ncc(CCOc3cccc4c3CNC4=O)cc2C(=O)Nc2c(C)ccnc21 [Entry 102],< 50,< 10,> 100,< 10
"CCN1c2ncc(CCOc3cccc4c3CN(O)C4=O)cc2C(=O)N(C)c2cccnc21 [Entry 103, 5,11-Dihydro-8-{2-{(2,3-dihydro-2-hydroxy-1-oxo-1H-isoindol-4-yl)oxy}ethyl}-11-ethyl-5-methyl-6H-dipyrido[3,2-b:2′,3′-e][1,4]diazepin-6-one]",50 to 100,< 10,> 100,10 to 50
"CCN1c2ncc(CCOc3cccc4c3CN(Cc3ccncc3)C4=O)cc2C(=O)N(C)c2cccnc21 [Entry 104, 5,11-dihydro-8-{2-{{2,3-dihydro-1-oxo-2-(4-pyridinylmethyl)-1H-isoindol-4-yl}oxy}ethyl}-11-ethyl-5-methyl-6H-dipyrido[3,2-b:2′,3′-e][1,4]diazepin-6-one]",< 50,,50 to 100,
"CCN1c2ncc(CCOc3cccc4c3CC(=O)N4)cc2C(=O)N(C)c2cccnc21 [Entry 105, 5,11-Dihydro-8-{2-{(2,3-dihydro-2-oxo-1H-indol-4-yl)oxy}ethyl}-11-ethyl-5-methyl-6H-dipyrido[3,2-b:2′,3′-e][1,4]diazepin-6-one]",50 to 100,,> 100,
"CCN1c2ncc(CCOc3cccc4c3C(C)C(=O)N4C)cc2C(=O)N(C)c2cccnc21 (stereo not drawn) [Entry 106, 5,11-dihydro-8-{2-{(2,3-dihydro-1,3-dimethyl-2-oxo-1H-indol-4-yl)oxy}ethyl}-11-ethyl-5-methyl-6H-dipyrido[3,2-b:2′,3′-e][1,4]diazepin-6-one]",50 to 100,,> 100,
"CCN1c2ncc(CCOc3cccc4c3CC(=O)N4C)cc2C(=O)N(C)c2cccnc21 [Entry 107, 5,11-dihydro-8-{2-{(2,3-dihydro-1-methyl-2-oxo-1H-indol-4-yl)oxy}ethyl}-11-ethyl-5-methyl-6H-dipyrido[3,2-b:2′,3′-e][1,4]diazepin-6-one]",50 to 100,,,
CCN1c2ncc(CCOc3cccc4c3CCNC4=O)cc2C(=O)N(C)c2cccnc21 [Entry 108],< 50,,50 to 100,
CCN1c2ncc(CCOc3cccc4c3CCNC4=O)cc2C(=O)Nc2c(C)ccnc21 [Entry 109],< 50,,> 100,
"CCN1c2ncc(CCOc3cccc4c3CNC(=O)N4)cc2C(=O)N(C)c2cccnc21 [Entry 110, 5,11-Dihydro-11-ethyl-5-methyl-8-{2-{(1,2,3,4-tetrahydro-2-oxo-5-quinazolinyl)oxy}ethyl}-6H-dipyrido[3,2-b:2′,3′-e][1,4]diazepin-6-one]",< 50,< 10,> 100,< 10
CCN1c2ncc(CCOc3cccc4c3CNC(=O)N4)cc2C(=O)Nc2c(C)ccnc21 [Entry 111],< 50,< 10,> 100,10 to 50
CCN1c2ncc(CCOc3cccc4c3CN(C)C(=O)N4C)cc2C(=O)N(C)c2cccnc21 [Entry 112],< 50,< 10,> 100,10 to 50
CCN1c2ncc(CCOc3cccc4c3CNC(=O)N4C)cc2C(=O)N(C)c2cccnc21 [Entry 113],< 50,< 10,< 50,< 10
Cc1ccnc2c1NC(=O)c1cc(CCOc3cccc4c3CNC(=O)N4)cnc1N2C1CC1 [Entry 114],< 50,,> 100,
CCN1c2ncc(CCOc3cccc4c3CN(C)C(=O)N4C)cc2C(=O)Nc2c(C)ccnc21 [Entry 115],< 50,,> 100,
CCN1c2ncc(CCOc3cccc4c3CNC(=O)N4C)cc2C(=O)Nc2c(C)ccnc21 [Entry 116],< 50,,> 100,
CCN1C(=O)c2cc(CCOc3cccc4c3CNC(=O)N4)cnc2N(CC)c2ncccc21 [Entry 117],< 50,,> 100,

Compound,IC50 [1] [nM],EC50 [2] [nM],IC50 [3] [nM],EC50 [4] [nM]
CCN1c2ncc(CCOc3cccc4c3CNC(=O)N4CC(=O)O)cc2C(=O)N(C)c2cccnc21 [Entry 118],< 50,> 50,> 100,> 50
CCN1c2ncc(CCOc3ccc4c(c3)CNC(=O)N4C)cc2C(=O)N(C)c2cccnc21 [Entry 119],< 50,,> 100,
CCN1c2ncc(CCOc3ccc4c(c3)CN(C)C(=O)N4C)cc2C(=O)N(C)c2cccnc21 [Entry 120],< 50,,> 100,
CCN1c2ncc(CCOc3ccc4c(c3)CNC(=O)N4)cc2C(=O)N(C)c2cccnc21 [Entry 121],50 to 100,,> 100,
"CCN1c2ncc(CCOc3ccc4[nH]c(=O)[nH]c4c3)cc2C(=O)N(C)c2cccnc21 [Entry 122, 5,11-Dihydro-8-{2-{(2,3-dihydro-2-oxo-1H-benzimidazol-5-yl)oxy}ethyl}-11-ethyl-5-methyl-6H-dipyrido[3,2-b:2′,3′-e][1,4]diazepin-6-one]",50 to 100,,> 100,
"CCN1c2ncc(CCOc3cccc4c3CNC(=O)C4)cc2C(=O)N(C)c2cccnc21 [Entry 123, 5,11-Dihydro-11-ethyl-5-methyl-8-{2-{(1,2,3,4-tetrahydro-3-oxo-8-isoquinolinyl)oxy}ethyl}-6H-dipyrido[3,2-b:2′,3′-e][1,4]diazepin-6-one]",< 50,,< 50,
"CCN1c2ncc(CCOc3cccc4c3CNC(=O)O4)cc2C(=O)N(C)c2cccnc21 [Entry 124, 5,11-Dihydro-8-{2-{(3,4-dihydro-2-oxo-2H-1,3-benzoxazin-5-yl)oxy}ethyl}-11-ethyl-5-methyl-6H-dipyrido[3,2-b:2′,3′-e][1,4]diazepin-6-one]",< 50,,< 50,
"CCN1c2ncc(CCOc3cccc4c3C(C)(C)OC(=O)N4)cc2C(=O)N(C)c2cccnc21 [Entry 125, 5,11-Dihydro-8-{2-{(1,4-dihydro-4,4-dimethyl-2-oxo-2H-3,1-benzoxazin-5-yl)oxy}ethyl}-11-ethyl-5-methyl-6H-dipyrido[3,2-b:2′,3′-e][1,4]diazepin-6-one]",50 to 100,,> 100,
"CCN1c2ncc(CCOc3cccc4c3COC(=O)N4)cc2C(=O)N(C)c2cccnc21 [Entry 126, 5,11-Dihydro-8-{2-{(1,4-dihydro-2-oxo-2H-3,1-benzoxazin-5-yl)oxy}ethyl}-11-ethyl-5-methyl-6H-dipyrido[3,2-b:2′,3′-e][1,4]diazepin-6-one]",< 50,,> 100,
CCN1c2ncc(CCOc3cccc4c3COC(=O)N4)cc2C(=O)Nc2c(C)ccnc21 [Entry 127],< 50,,> 100,
"CCN1c2ncc(CCOc3cccc4c3COC(=O)N4CC(=O)O)cc2C(=O)N(C)c2cccnc21 [Entry 128, 5-[2-(6,11-dihydro-11-ethyl-5-methyl-6-oxo-5H-dipyrido[3,2-b:2′,3′-e][1,4]diazepin-8-yl)ethoxy]-2-oxo-2H-3,1-benzoxazine-1(4H)-acetic acid]",50 to 100,,> 100,
"CCN1c2ncc(CCOc3ccc4on(C(C)(C)C)c(=O)c4c3)cc2C(=O)Nc2c(C)cc(F)nc21 [Entry 129, 5,11-Dihydro-8-{2-{{2,3-dihydro-2-(1,1-dimethylethyl)-3-oxo-1,2-benzisoxazol-5-yl}oxy}ethyl}-2-fluoro-11-ethyl-4-methyl-6H-dipyrido[3,2-b:2′,3′-e][1,4]diazepin-6-one]",50 to 100,,> 100,
CCN1c2ncc(CCOc3ccc4on(C)c(=O)c4c3)cc2C(=O)Nc2c(C)cc(F)nc21 [Entry 130],< 50,,> 100,
CCN1c2ncc(CCOc3cccc4c3n(C)c(=O)n4C)cc2C(=O)N(C)c2cccnc21 [Entry 131],50 to 100,,> 100,
CCN1c2ncc(CCOc3cccc4[nH]c(=O)n(C)c34)cc2C(=O)N(C)c2cccnc21 [Entry 132],50 to 100,,> 100,
CCN1c2ncc(CCOc3ccc4c(c3)COC(=O)N4)cc2C(=O)N(C)c2cccnc21 [Entry 133],< 50,,> 100,
